These results are taken from article PMC7686382, “Bioassay-based Corchorus capsularis L. leaf-derived β-sitosterol exerts antileishmanial effects against Leishmania donovani by targeting trypanothione reductase” (Scientific Reports, 2020).

The structures appear in SMILES notation.

This assay concerns the target T1, Leishmania donovani trypanothione reductase (LdTryR) (Leishmania donovani, UniProt P39050).
T1 construct: gene TPR; recombinant LdTryR
Briefly: spectrophotometric NADPH oxidation assay ([…] nm) on recombinant enzyme, Lineweaver-Burk kinetics. In kind it is biochemical.

T1 sequence (P39050 whole entry): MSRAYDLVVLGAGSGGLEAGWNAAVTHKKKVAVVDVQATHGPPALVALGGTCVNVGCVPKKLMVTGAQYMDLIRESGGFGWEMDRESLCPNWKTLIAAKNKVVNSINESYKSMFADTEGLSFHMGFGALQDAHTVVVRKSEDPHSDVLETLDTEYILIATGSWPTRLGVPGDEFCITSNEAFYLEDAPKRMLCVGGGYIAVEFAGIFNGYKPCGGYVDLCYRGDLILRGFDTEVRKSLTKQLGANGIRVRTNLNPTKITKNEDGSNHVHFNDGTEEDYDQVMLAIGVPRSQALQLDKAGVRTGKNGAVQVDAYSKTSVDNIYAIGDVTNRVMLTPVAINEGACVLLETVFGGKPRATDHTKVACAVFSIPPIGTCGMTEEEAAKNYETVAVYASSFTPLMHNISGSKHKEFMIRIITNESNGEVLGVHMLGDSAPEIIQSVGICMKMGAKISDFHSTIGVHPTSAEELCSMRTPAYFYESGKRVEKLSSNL

Usually Ki stands for a dissociation constant, usually derived from enzyme kinetics or from competition with a known ligand. With `CC[C@H](CC[C@@H](C)[C@H]1CC[C@H]2[C@@H]3CC=C4C[C@@H](O)CC[C@]4(C)[C@H]3CC[C@]12C)C(C)C` [β-sitosterolCCL, β-sitosterol], the Ki was 8.43 µM.
